The text below walks through data of patent US8759537B2, “3H-imidazo [4, 5-C] pyridine-6-carboxamides as anti-inflammatory agents” (Boehringer Ingelheim International GmbH, priority 2010, dated 2014).

Structures are written as SMILES. pIC50: −log10 of the molar value. Where only a bound is given, the exact number is not on record here.

As usually defined, the pIC50 is the IC50 on a negative log10 scale, so that one unit is a factor of ten.

Assay [1] deals with T1, mPGES-1 (Homo sapiens (Human), UniProt O14684). Description: mPGES-1 enzyme assay (HTRF detection of PGE2). The class given is biochemical. The note with it: recombinant human mPGES-1 microsomes, PGH2 2 μM; read-out: mPGES-1 inhibitory effect in the enzyme assay, IC50. As to the method: Microsomes from Rosetta E. coli bacteria expressing recombinant human mPGES-1 can be derived as described below:
Inoculate 5 ml LB with Ampicilin (50 μg/ml) and Chloramphenicol (34 μg/ml) with bacteria from freeze culture. Incubate 8 h at 37° C. with 200 rpm. Thereafter, inoculate 500-1000 ml LB containing Amp and Chloro with the 5 ml on culture and grow to OD640 of 0.8-1.0. Chill the culture to +4° C. before induction. Induce the culture with IPTG at a final concentration of 400 μM. Express the protein at room temp 18-23° C. with 200 rpm shaking over night.
The following steps can be performed on the following day: • 1. Spin down the cells in 250 ml centrifuge flasks for 15 min at 7000 rpm (Beckmann Coulte Avanti J-E centrifuge) • 2. Dissolve the pellet from 250 ml culture in 12.5 ml homogenization buffer • 3. (15 mM Tris-HCL pH8, 1 mM EDTA pH8, […], 2.5 mM GSH, 1 Tablet Protease inhibitor per 50 ml buffer) • 4. […] Add 2.5 ml MgCl2 (100 mM) and DNase 12.5 μl (0.8 mg/ml) and incubate on ice for 30 min • 6. Spin down the bacteria debris and save the supernatant, 7000 rpm for 15 min • 7. Isolate the protein containing membranes in the supernatant by ultracentrifugation 120000×g for 2 hour at 4° C. (Sorvall T880 rotor). • 8. Discard the supernatant and dissolve the pellet in 20 mM Potassium phosphate buffer pH7.4 (KH2PO4 and K2HPO4) buffer by sonication (5×10 s, 30% of a 50 W sonifier) and aliquot the enzyme and store aliquots at −80° C.
Before each experiment is performed an aliquot of the enzyme is thawed and it can then be dissolved in 0.1 M Potassium phosphate buffer pH7.4 (KH2PO4 and K2HPO4) buffer containing 2.5 mM GSH.
The aim of this assay is to determine the affinity of a test compound for the mPGES-1 enzyme.
47 μl of recombinant human mPGES-1 (˜0.5 μg protein/well) containing microsomal suspension in a buffer containing GSH, (2.5 mmol/L L-Glutathione reduced, dissolved in 0.1 mol/L Phosphat Buffer pH 7.4) is dispensed in a 384-well plate and thereafter 1 μl of the test compound(s) is/are added and incubated for 25 minutes at room temperature. The enzyme reaction is started by the addition of 2 ul PGH2 (final conc. 2 μM) dissolved in water-free Diglyme. After 60 seconds the reaction is terminated by addition of a stop solution containing FeCl2 (10 μL 0.074 mol/l FeCl2). The samples are diluted between 1:25 in PBS (Phosphate Buffered Saline). 10 μl of the diluted samples are transferred to 384-well low volume plate. In order to quantify the amount of PGE2 that has been formed, a homogenous time resolved fluorescent (HTRF) detecting of PGE2 has been performed using a commercially available kit from Cisbio according to the manufactures recommendation. […] Briefly, the diluted samples are mixed with 5 μl PGE2-d2 conjungate and 5 μl anti-PGE2 cryptate conjungate. After an incubation period of the plates over night, the fluorescence is measured by the use of an appropriate microplate reader.
The quantification plate contains also wells with different concentrations of PGE2 as calibration curve for the calculation of the PGE2 concentrations from the HTRF ratio values.
From all mPGES enzyme assay the background is subtracted and the IC50 is calculated over a nonlinear regression with conventional software.

The target of assay [2] is T1, mPGES-1. Nature of the assay: A549 cell-based assay (PGE2 formation, IL-1β stimulated, 50% human serum). The note with it: A549 cells, IL-1β 5 ng/ml, read-out: mPGES-1 inhibitory effect in the cell assay, IC50. As to the method: Although the enzymatic assay is a high throughput assay the disadvantage is that it uses a recombinant protein which is not in its natural environment. Accordingly a cellular assay was established in which a cell line of human origin (A549) expressing the mPGES-1 protein was used. In addition in order to mimic the situation in humans in which compounds can be bound to plasma proteins 50% human serum is added in the assay.
Cells were detached using Trypsin-EDTA. A549 cells were seeded in a 384-well collagene plate at a density of 7000 cells/well (50 μl) in F-12 medium containing 1% Penicillin-Streptomycin and 50% human serum. The cells were allowed to attach for 3-4 h. […] The total volume is 100 μl.
Concentrations of PGE2 in the cell free medium (10 μl) were measured using a commercially available HTRF kit from Cisbio (as described above). The PGE2 formation in the absence of test compound was taken as 100%.
IC50 values were derived from at 6-8 point titrations using conventional software.

T1 sequence (O14684 whole entry): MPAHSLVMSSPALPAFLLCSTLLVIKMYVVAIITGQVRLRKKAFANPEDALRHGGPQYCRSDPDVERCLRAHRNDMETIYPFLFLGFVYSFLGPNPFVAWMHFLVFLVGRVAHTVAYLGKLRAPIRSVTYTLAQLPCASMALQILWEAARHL

Regarding `Cn1c(Nc2c(Cl)ccc(CNC(=O)C(C)(C)C)c2Cl)nc2cc(C(=O)NCC(F)(F)C(F)(F)F)c(OCC(F)F)cc21` [Example 38], the pIC50 at mPGES-1 [1] is 8.52; at mPGES-1 [2] it was more than 9.00.

Regarding `Cc1cc(C#N)c(NC(=O)c2cc3nc(Nc4c(Cl)ccc(CNC(=O)C(C)(C)C)c4Cl)n(C)c3cc2OCC(F)F)s1` [Example 62], the pIC50 on mPGES-1 [1] is 8.70; on mPGES-1 [2], 9.00.

Regarding `Cn1c(Nc2c(Cl)ccc(CNC(=O)C(C)(C)C)c2Cl)nc2cc(C(=O)Nc3ccc(F)c(F)c3)c(OCC(F)F)cc21` [Example 74], the pIC50 is 8.05 on mPGES-1 [1] and 9.00 at mPGES-1 [2].

On to `Cn1c(Nc2c(Cl)ccc(CNC(=O)C(C)(C)C)c2Cl)nc2cc(C(=O)N[C@H]3CC[C@H](C(F)F)CC3)c(OCC(F)F)cc21` [Example 68], for which the pIC50 on mPGES-1 [1] is 8.70; on mPGES-1 [2], 9.00.

For the molecule `Cn1c(Nc2c(Cl)ccc(CNC(=O)N3CC(F)(F)C3)c2Cl)nc2cc(C(=O)N[C@H]3CC[C@H](C(F)(F)F)CC3)c(OCC(F)F)cc21` [Example 80, N-(trans-4-Trifluoromethyl-cyclohex-1-yl)-2-{2,6-dichloro-3-[(3,3-difluoro-azetidine-1-carbonylamino)-methyl]-phenylamino}-6-(2,2-difluoroethoxy)-1-methyl-1H-benzimidazole-5-carboxylic acid amide], the pIC50 at mPGES-1 [1] was 9.00; on mPGES-1 [2], 8.15.

Regarding `Cn1c(Nc2c(Cl)ccc(CNC(=O)C(C)(C)C)c2Cl)nc2cc(C(=O)NCCc3ccccc3)c(OCC(F)F)cc21` [Example 57], the values for the pIC50 on mPGES-1 [1] and on mPGES-1 [2] were 8.40 and more than 9.00, respectively.

For the molecule `COCCOc1cc2c(cc1C(=O)Nc1ccc(F)c(Cl)c1)nc(Nc1c(Cl)ccc(CNC(=O)C(C)(C)C)c1Cl)n2C` [Example 178], the figures for the pIC50 on mPGES-1 [1] and at mPGES-1 [2] were 9.00 and more than 9.00, respectively.

Turning to `Cn1c(Nc2c(F)ccc(CNC(=O)C(C)(C)C)c2F)nc2cc(C(=O)Nc3ccc(Br)cc3)c(F)cc21` [Example 9], the pIC50 was 8.40 on mPGES-1 [1] and 7.10 on mPGES-1 [2].

As for `Cn1c(Nc2c(Cl)ccc(CNC(=O)C(C)(C)C)c2Cl)nc2cc(C(=O)Nc3ccc(C(F)(F)F)cn3)c(OCC(F)F)cc21` [Example 61], the pIC50 on mPGES-1 [1] was 8.40; on mPGES-1 [2], more than 9.00.

As to `Cn1c(Nc2c(Cl)ccc(CNC(=O)C(C)(C)C)c2Cl)nc2cc(C(=O)Nc3ccc(Cl)c(F)c3)c(F)cc21` [Example 19], the figures for the pIC50 on mPGES-1 [1] and at mPGES-1 [2] were 9.00 and 8.70, respectively.

Consider `Cn1c(Nc2c(Cl)ccc(CNC(=O)C(C)(C)C)c2Cl)nc2cc(C(=O)NCC3CC3(Cl)Cl)c(OCC(F)F)cc21` (stereo not drawn) [Example 44], for which the pIC50 on mPGES-1 [1] was 8.52; on mPGES-1 [2], 9.00.

Turning to `Cn1c(Nc2c(Cl)ccc(CNC(=O)C3CCCC3)c2Cl)nc2cc(C(=O)Nc3ccc(F)c(Cl)c3)c(OCC(F)F)cc21` [Example 160], the pIC50 on mPGES-1 [2] was more than 9.00.

Regarding `Cn1c(Nc2c(Cl)ccc(CNC(=O)C3CC3(F)F)c2Cl)nc2cc(C(=O)Nc3ccc(F)c(Cl)c3)c(OCC(F)F)cc21` (stereo not drawn) [Example 153], on mPGES-1 [2], the pIC50 was 8.52.

Take `Cn1c(Nc2c(Cl)ccc(CNC(=O)C3(C)CC3)c2Cl)nc2cc(C(=O)Nc3ccc(F)c(Cl)c3)c(OCC(F)F)cc21` [Example 133]: the pIC50 on mPGES-1 [2] was 9.00.

Turning to `Cn1c(Nc2c(Cl)ccc(CNC(=O)CC(F)(F)F)c2Cl)nc2cc(C(=O)NCC(F)(F)F)c(OCC(F)F)cc21` [Example 128], the pIC50 on mPGES-1 [2] was 7.59.

Regarding `Cn1c(Nc2c(Cl)ccc(CNC(=O)C3CCC3)c2Cl)nc2cc(C(=O)Nc3ccc(F)c(Cl)c3)c(OCC(F)F)cc21` [Example 172], at mPGES-1 [2], the pIC50 was 8.70.

Regarding `Cn1c(Nc2c(Cl)ccc(CNC(=O)c3ccno3)c2Cl)nc2cc(C(=O)Nc3ccc(F)c(Cl)c3)c(OCC(F)F)cc21` [Example 166], the pIC50 at mPGES-1 [2] is 8.15.

On to `Cn1c(Nc2c(Cl)ccc(CNC(=O)C3CCCO3)c2Cl)nc2cc(C(=O)Nc3ccc(F)c(Cl)c3)c(OCC(F)F)cc21` (stereo not drawn) [Example 137], for which the pIC50 on mPGES-1 [2] is 8.40.

`Cn1cccc1C(=O)NCc1ccc(Cl)c(Nc2nc3cc(C(=O)Nc4ccc(F)c(Cl)c4)c(OCC(F)F)cc3n2C)c1Cl` [Example 142]: the pIC50 at mPGES-1 [2] is 8.60.

For `Cn1c(Nc2c(Cl)ccc(CNC(=O)C(C)(C)CO)c2Cl)nc2cc(C(=O)Nc3ccc(F)c(Cl)c3)c(OCC(F)F)cc21` [Example 155], on mPGES-1 [2], the pIC50 was 8.70.

Regarding `Cn1c(Nc2c(Cl)ccc(CNC(=O)CC#N)c2Cl)nc2cc(C(=O)Nc3ccc(F)c(Cl)c3)c(OCC(F)F)cc21` [Example 154], the pIC50 on mPGES-1 [2] is 7.44.

On to `Cn1c(Nc2c(Cl)ccc(CNC(=O)C3CCC3)c2Cl)nc2cc(C(=O)NCC(F)(F)F)c(OCC(F)F)cc21` [Example 91], for which, on mPGES-1 [2], the pIC50 is 8.00.

For `Cn1c(Nc2c(Cl)ccc(CNC(=O)C(C)(N)C(F)(F)F)c2Cl)nc2cc(C(=O)Nc3ccc(F)c(Cl)c3)c(OCC(F)F)cc21` (stereo not drawn) [Example 152], the pIC50 at mPGES-1 [2] is more than 9.00.

As to `Cn1c(Nc2c(Cl)ccc(CNC(=O)C(N)C(F)(F)F)c2Cl)nc2cc(C(=O)NCC(F)(F)F)c(OCC(F)F)cc21` (stereo not drawn) [Example 87], the pIC50 on mPGES-1 [2] is 6.66.

`CC(C)(C)C(=O)NCc1ccc(F)c(Nc2nc3cc(C(=O)Nc4ccc(F)c(Cl)c4)c(F)cc3[nH]2)c1F` [Example 24]: on mPGES-1 [1], the pIC50 is 8.52.

Take `Cn1c(Nc2c(Cl)ccc(CNC(=O)C(C)(C)F)c2Cl)nc2cc(C(=O)Nc3ccc(F)c(Cl)c3)c(OCC(F)F)cc21` [Example 84, N-(3-Chloro-4-fluoro-phenyl)-2-{2,6-dichloro-3-[(2-fluoro-2-methyl-propionylamino)-methyl]-phenylamino}-6-(2,2-difluoroethoxy)-1-methyl-1H-benzimidazole-5-carboxylic acid amide]: the pIC50 at mPGES-1 [2] is more than 9.00.

`Cn1c(Nc2c(Cl)ccc(CNC(=O)C(O)C(F)(F)F)c2Cl)nc2cc(C(=O)Nc3ccc(F)c(Cl)c3)c(OCC(F)F)cc21` (stereo not drawn) [Example 161]: the pIC50 on mPGES-1 [2] is 8.70.

Regarding `Cn1c(Nc2c(Cl)ccc(CNC(=O)CC3CC3)c2Cl)nc2cc(C(=O)Nc3ccc(F)c(Cl)c3)c(OCC(F)F)cc21` [Example 144], on mPGES-1 [2], the pIC50 was 8.70.

Consider `Cn1c(Nc2c(Cl)ccc(CNC(=O)C(F)F)c2Cl)nc2cc(C(=O)Nc3ccc(F)c(Cl)c3)c(OCC(F)F)cc21` [Example 159], for which the pIC50 on mPGES-1 [2] is 9.00.

With `C[C@H](O)C(=O)NCc1ccc(Cl)c(Nc2nc3cc(C(=O)NCC(F)(F)F)c(OCC(F)F)cc3n2C)c1Cl` [Example 109], the pIC50 at mPGES-1 [2] is 7.24.

Consider `COC(C)(C)C(=O)NCc1ccc(Cl)c(Nc2nc3cc(C(=O)Nc4ccc(F)c(Cl)c4)c(OCC(F)F)cc3n2C)c1Cl` [Example 135], for which the pIC50 at mPGES-1 [2] is more than 9.00.

For `Cn1c(Nc2c(Cl)ccc(CNC(=O)c3sccc3Cl)c2Cl)nc2cc(C(=O)Nc3ccc(F)c(Cl)c3)c(OCC(F)F)cc21` [Example 168], at mPGES-1 [2], the pIC50 was more than 9.00.

For `Cn1c(Nc2c(Cl)ccc(CNC(=O)C3CC3)c2Cl)nc2cc(C(=O)NCC(F)(F)F)c(OCC(F)F)cc21` [Example 100], the pIC50 at mPGES-1 [2] is 7.28.

On to `CC(C)C(=O)NCc1ccc(Cl)c(Nc2nc3cc(C(=O)NCC(F)(F)F)c(OCC(F)F)cc3n2C)c1Cl` [Example 110], for which the pIC50 at mPGES-1 [2] is 8.10.
